# Legend:
# SEM cells = assay: AUC of viability dose-response curve (% viability x log10 dose units); higher = less sensitive; details: 48 h
# Procedure, shortened: (§1)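 Area under the curve was integrated by trapezoidal rule from a log-logistic fit of normalised viability, with curves exceeding full viability scaled and quality-control failures removed. The fit had four parameters over log10 doses. Viability came from CellTiter-Glo One luminescence, normalised per plate to DMSO and cell-free wells, after leukemia cells adapted to each medium (500 or 1000 cells/well, 1536-well plates) were exposed to library compounds in DMSO for 48 h at 37°C. The 11 threefold doses ran from 47 μM to 0.79 nM.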
# P12-Ichikawa = assay: as above; details: 48 h
# Procedure, shortened: as §1
# NOMO1 [1] = assay: as above; details: 48 h
# Procedure, shortened: as §1
# NOMO1 [2] = assay: cell viability relative to DMSO control; higher = less cytotoxic; details: RPMI 5 mM glucose + 10% dialyzed FBS, 48 h
# Procedure, shortened: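 Viability is expressed as a percentage of DMSO wells within each plate, and cell-free wells serve as background. Seeding densities in the 1536-well plates (5 μl) were 500 cells/well for NOMO1 or SEM leukemia cells and 1000 cells/well for P12-Ichikawa. Each line was adapted for at least four passages in each medium. Library compounds in DMSO were pin-dosed at 47 μM to 0.79 nM (11 points, threefold), and CellTiter-Glo One luminescence was read after 48 h at 37°C.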
# [3] = RPMI 5 mM glucose + 10% dialyzed FBS
Structure (SMILES),AUC of viability dose-response curve (SEM cells; HPLM + 10% dialyzed FBS),AUC of viability dose-response curve (SEM cells; RPMI 5 mM glucose + 10% FBS),AUC of viability dose-response curve (SEM cells; [3]),AUC of viability dose-response curve (P12-Ichikawa; HPLM + 10% dialyzed FBS),AUC of viability dose-response curve (P12-Ichikawa; RPMI 5 mM glucose + 10% FBS),AUC of viability dose-response curve (P12-Ichikawa; [3]),AUC of viability dose-response curve (NOMO1 [1]; HPLM + 10% dialyzed FBS),AUC of viability dose-response curve (NOMO1 [1]; RPMI 5 mM glucose + 10% FBS),AUC of viability dose-response curve (NOMO1 [1]; [3]),cell viability (NOMO1 [2]; 0.000781 µM),cell viability (NOMO1 [2]; 0.00234 µM),cell viability (NOMO1 [2]; 0.00702 µM),cell viability (NOMO1 [2]; 0.0211 µM),cell viability (NOMO1 [2]; 0.0632 µM),cell viability (NOMO1 [2]; 0.19 µM),cell viability (NOMO1 [2]; 0.569 µM),cell viability (NOMO1 [2]; 1.71 µM),cell viability (NOMO1 [2]; 5.12 µM),cell viability (NOMO1 [2]; 15.4 µM),cell viability (NOMO1 [2]; 46.1 µM)
COc1ccc2c(c1)CC[C@@H](CN(C)CC(=O)O)[C@H]2c1ccccc1,373,362,385,368,369,390,409,407,411,120%,125%,125%,101%,127%,130%,125%,123%,85.2%,29.8%,36.6%
CC1CCN(c2cc(N3CCN(C)CC3)ccc2NC(=O)c2cc(C#N)c[nH]2)CC1,456,444,451,450,453,453,457,463,454,–,–,–,–,–,–,–,–,–,–,–
CC(=O)O/N=C1/C(=C2\C(=O)Nc3cc(Br)ccc32)Nc2ccccc21,324,317,308,439,443,437,431,450,443,–,–,–,–,–,–,–,–,–,–,–
CC(C)C1=N[N](C\2=C1C(=O)N\C(=N2)CC3=CC=C(OCCO)C=C3)C4=C(Cl)C=CC=C4Cl,–,–,–,244,241,239,225,226,222,–,–,–,–,–,–,–,–,–,–,–
